Measurements from US20230203098A1, “HUMAN TRANSFERRIN RECEPTOR BINDING PEPTIDE” (priority 2020, published 2023).
Read-outs that look alike come from different tables or passages of the source. Values belong to the molecule of their own block, whether it stands above or below them. Where a SMILES comes first, the peptide text is derived from it. Bridges are numbered along the chain shown (N, C = ends). [ ]: non-standard residue; d: D form. PEG12 = NCCOCCOCCOCCOCCOCCOCCOCCOCCOCCOCCOCCOCCC(=O)O; NMePhe(3-Cl) = CN[C@@H](Cc1cccc(Cl)c1)C(=O)O; NMeW = CN[C@@H](Cc1c[nH]c2ccccc12)C(=O)O; Lys(N3) = [N-]=[N+]=NCCCC[C@H](N)C(=O)O; Phe(4-F) = N[C@@H](Cc1ccc(F)cc1)C(=O)O; NMeY = CN[C@@H](Cc1ccc(O)cc1)C(=O)O; NMeF = CN[C@@H](Cc1ccccc1)C(=O)O

Target: transferrin receptor (hTfR) (Homo sapiens, UniProt P02786)
Sequence (P02786 whole entry): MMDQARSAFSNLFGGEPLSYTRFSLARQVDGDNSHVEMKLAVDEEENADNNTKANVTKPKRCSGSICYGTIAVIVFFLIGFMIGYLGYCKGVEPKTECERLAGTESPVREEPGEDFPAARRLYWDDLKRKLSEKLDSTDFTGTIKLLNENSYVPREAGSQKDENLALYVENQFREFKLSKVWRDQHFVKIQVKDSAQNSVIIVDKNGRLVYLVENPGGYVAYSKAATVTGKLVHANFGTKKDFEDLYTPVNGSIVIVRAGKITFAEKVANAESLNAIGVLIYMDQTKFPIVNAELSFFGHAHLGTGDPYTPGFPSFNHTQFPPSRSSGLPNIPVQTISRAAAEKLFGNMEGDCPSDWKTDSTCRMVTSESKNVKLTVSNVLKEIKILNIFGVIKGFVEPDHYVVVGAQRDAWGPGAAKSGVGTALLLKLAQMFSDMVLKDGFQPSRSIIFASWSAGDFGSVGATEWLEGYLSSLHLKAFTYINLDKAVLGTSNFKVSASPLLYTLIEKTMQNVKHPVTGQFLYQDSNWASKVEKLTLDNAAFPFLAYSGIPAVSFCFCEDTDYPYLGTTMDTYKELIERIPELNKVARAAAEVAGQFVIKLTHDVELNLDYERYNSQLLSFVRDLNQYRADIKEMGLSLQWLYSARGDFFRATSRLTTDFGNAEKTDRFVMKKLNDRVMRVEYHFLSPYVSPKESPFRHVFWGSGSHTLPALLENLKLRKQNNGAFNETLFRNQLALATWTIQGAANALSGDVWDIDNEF
Test: Intermolecular interaction evaluation test between transferrin receptor (hTfR) and peptide by surface plasmon resonance (SPR)
Type: binding
In short: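 Receptor was Ni-captured and EDC/NHS-fixed on an NTA chip; running buffer HEPES pH 8.0 with NaCl, Tween 20, BSA and 1.0% DMSO.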

[1] = SPR, hTfR No. 894 variants with PEG12c linker (Table 2), read-out: KD
[2] = surface plasmon resonance, peptide vs hTfR, read-out: KD value, hTfR binding by SPR (class symbol)
[3] = surface plasmon resonance, hTfR, read-out: KD value for hTfR by SPR (class symbol)

Kd [1]: 1 to 100 nM
Compound: CC[C@H](C)[C@@H]1NC(=O)[C@H](Cc2ccc(O)cc2)NC(=O)[C@H](C)NC(=O)[C@H](CC(N)=O)NC(=O)[C@H](Cc2c[nH]c3ccccc23)NC(=O)[C@H](C(C)C)NC(=O)[C@H](Cc2ccccc2)N(C)C(=O)[C@H](C(C)C)NC(=O)[C@H](C)NC(=O)CSC[C@@H](C(=O)NCCOCCOCCOCCOCCOCCOCCOCCOCCOCCOCCOCCOCCC(N)=O)NC(=O)[C@H](Cc2ccc(O)cc2)N(C)C(=O)[C@H](Cc2ccc(O)cc2)NC(=O)[C@H](CCCNC(=N)N)NC(=O)[C@H](CCCNC(=N)N)NC(=O)[C@H]([C@@H](C)CC)NC1=O [compound 140] ({CH2CO}-AV[NMeF]VWNAYIIRRY[NMeY]C[PEG12]-NH2; thioether N-15)

Kd (SPR, peptides, linker-added peptides and FITC conjugates, Patent ID 203-230, read-out: KD): 1 to 100 nM
Compound: CC[C@H](C)[C@@H]1NC(=O)[C@H](Cc2ccc(OC)cc2)NC(=O)[C@H](Cc2ccc(O)cc2)NC(=O)[C@H](CC(N)=O)NC(=O)[C@H](Cc2c[nH]c3ccccc23)N(C)C(=O)[C@H](C(C)C)NC(=O)[C@H](Cc2cccc(Cl)c2)N(C)C(=O)[C@H](CCC(=O)O)NC(=O)[C@H](C)NC(=O)CSC[C@@H](C(=O)NCC(=O)N[C@@H](CCCCN=[N+]=[N-])C(N)=O)NC(=O)[C@H](Cc2ccc(O)cc2)N(C)C(=O)[C@H](Cc2ccccc2)NC(=O)[C@@H](CCCNC(=N)N)NC(=O)[C@H](CCCNC(=N)N)NC(=O)[C@H](CCC(=O)O)NC1=O [compound 224] ({CH2CO}-AE[NMePhe(3-Cl)]V[NMeW]NYY(Me)IER[dR]F[NMeY]CG[Lys(N3)]-NH2; thioether N-15)

Kd [1]: 1 to 100 nM
Compound: CC[C@H](C)[C@@H]1NC(=O)[C@H](Cc2ccc(O)cc2)NC(=O)[C@H](Cc2ccc(O)cc2)NC(=O)[C@H](CC(N)=O)NC(=O)[C@H](Cc2cccc(F)c2)NC(=O)[C@H](C(C)C)NC(=O)[C@H](Cc2ccccc2)N(C)C(=O)[C@H](C(C)C)NC(=O)[C@H](C)NC(=O)CSC[C@@H](C(=O)NCCOCCOCCOCCOCCOCCOCCOCCOCCOCCOCCOCCOCCC(N)=O)NC(=O)[C@H](Cc2ccc(O)cc2)N(C)C(=O)[C@H](Cc2ccc(O)cc2)NC(=O)[C@H](CCCNC(=N)N)NC(=O)[C@H](CCCNC(=N)N)NC(=O)[C@H]([C@@H](C)CC)NC1=O [compound 122]

Kd (binding to hTfR by SPR, Table 2 peptides, read-out: KD value (SPR) class): 1 to 100 nM
Compound: CC[C@H](C)[C@@H]1NC(=O)[C@H](Cc2ccc(OC)cc2)NC(=O)[C@H](Cc2ccc(O)cc2)NC(=O)[C@H](CC(N)=O)NC(=O)[C@H](Cc2c[nH]c3ccccc23)N(C)C(=O)[C@H](C(C)C)NC(=O)[C@H](Cc2cccc(Cl)c2)N(C)C(=O)[C@H](CCC(=O)O)NC(=O)[C@H](C)NC(=O)CSC[C@@H](C(=O)NCC(=O)N[C@@H](CCCCN=[N+]=[N-])C(N)=O)NC(=O)[C@H](Cc2ccc(O)cc2)N(C)C(=O)[C@H](Cc2ccccc2)NC(=O)[C@H](CCC(=O)O)NC(=O)[C@H](CCCNC(=N)N)NC(=O)[C@H]([C@@H](C)CC)NC1=O [compound 232] ({CH2CO}-AE[NMePhe(3-Cl)]V[NMeW]NYY(Me)IIREF[NMeY]CG[Lys(N3)]-NH2; thioether N-15)

Kd [2]: 1 to 100 nM
Compound: CC[C@H](C)[C@@H]1NC(=O)[C@H](Cc2ccc(OC)cc2)NC(=O)[C@H](Cc2ccc(O)cc2)NC(=O)[C@H](CC(N)=O)NC(=O)[C@H](Cc2c[nH]c3ccccc23)N(C)C(=O)[C@H](C(C)C)NC(=O)[C@H](Cc2cccc(Cl)c2)N(C)C(=O)[C@H](C(C)C)NC(=O)[C@H](C)NC(=O)CSC[C@@H](C(=O)NCC(=O)N[C@@H](CCCCN=[N+]=[N-])C(N)=O)NC(=O)[C@H](Cc2ccc(O)cc2)N(C)C(=O)[C@H](Cc2ccccc2)NC(=O)[C@@H](CCCNC(=N)N)NC(=O)[C@H](CCCNC(=N)N)NC(=O)[C@H](CCC(=O)O)NC1=O [compound 340]

Kd (hTfR binding by SPR, hTfR No. 894 variant peptides, linker-added peptides and payload conjugates (Table 2), read-out: KD value obtained from the SPR measurement): 1 to 100 nM
Compound: CC[C@H](C)[C@@H]1NC(=O)[C@H](Cc2ccc(O)cc2)NC(=O)[C@H](Cc2ccc(O)cc2)NC(=O)[C@H](CC(N)=O)NC(=O)[C@H](Cc2c[nH]c3ccccc23)NC(=O)[C@H](C(C)C)NC(=O)[C@H](Cc2ccccc2)N(C)C(=O)[C@H](C(C)C)NC(=O)[C@H](C)NC(=O)CSC[C@@H](C(=O)NCC(=O)NCC(=O)N[C@@H](CO)C(=O)N[C@@H](CO)C(=O)N[C@@H](CCCCNC(=O)C2CCC(CN3C(=O)C=CC3=O)CC2)C(N)=O)NC(=O)[C@H](Cc2ccc(O)cc2)N(C)C(=O)[C@H](Cc2ccc(O)cc2)NC(=O)[C@H](CCCNC(=N)N)NC(=O)[C@H](CCCNC(=N)N)NC(=O)[C@H]([C@@H](C)CC)NC1=O (some centres unmarked) [compound 193]

Kd (SPR, hTfR, class symbols A-D, read-out: KD): 1 to 100 nM
Compound: CC[C@H](C)[C@@H]1NC(=O)[C@H](Cc2ccc(F)cc2)NC(=O)[C@H](Cc2ccc(O)cc2)NC(=O)[C@H](CC(N)=O)NC(=O)[C@H](Cc2c[nH]c3ccccc23)N(C)C(=O)[C@H](C(C)C)NC(=O)[C@H](Cc2cccc(Cl)c2)N(C)C(=O)[C@H](C(C)C)NC(=O)[C@H](C)NC(=O)CSC[C@@H](C(N)=O)NC(=O)[C@H](Cc2ccc(O)cc2)N(C)C(=O)[C@H](Cc2ccccc2)NC(=O)[C@@H](CCCNC(=N)N)NC(=O)[C@H](CCCNC(=N)N)NC(=O)[C@H]([C@@H](C)CC)NC1=O [compound 467] ({CH2CO}-AV[NMePhe(3-Cl)]V[NMeW]NY[Phe(4-F)]IIR[dR]F[NMeY]C-NH2; thioether N-15)

Kd [3]: 1 to 100 nM
Compound: CC[C@H](C)[C@@H]1NC(=O)[C@H](Cc2ccc(OC)cc2)NC(=O)[C@H](Cc2ccc(O)cc2)NC(=O)[C@H](CC(N)=O)NC(=O)[C@H](Cc2c[nH]c3ccccc23)N(C)C(=O)[C@H](C(C)C)NC(=O)[C@H](Cc2cccc(Cl)c2)N(C)C(=O)[C@H](C(C)C)NC(=O)[C@H](C)NC(=O)CSC[C@@H](C(=O)NCCOCCOCCOCCOCCC(N)=O)NC(=O)[C@H](Cc2ccc(O)cc2)N(C)C(=O)[C@H](Cc2ccccc2)NC(=O)[C@H](CCCNC(=N)N)NC(=O)C(C)(C)NC(=O)[C@H]([C@@H](C)CC)NC1=O [compound 351]

Kd [3]: 1 to 100 nM
Compound: CC[C@H](C)[C@@H]1NC(=O)[C@H](Cc2ccc(OC)cc2)NC(=O)[C@H](Cc2ccc(O)cc2)NC(=O)[C@H](CC(N)=O)NC(=O)[C@H](Cc2c[nH]c3ccccc23)N(C)C(=O)[C@H](C(C)C)NC(=O)[C@H](Cc2cccc(Cl)c2)N(C)C(=O)[C@H](C(C)C)NC(=O)[C@H](C)NC(=O)CSC[C@@H](C(=O)NCC(=O)N[C@@H](CCCCN=[N+]=[N-])C(N)=O)NC(=O)[C@H](Cc2ccc(O)cc2)N(C)C(=O)[C@H](Cc2ccccc2)NC(=O)[C@@H](CCCNC(=N)N)NC(=O)[C@H](CCCNC(=N)N)NC(=O)[C@H]([C@@H](C)CC)NC1=O [compound 405] ({CH2CO}-AV[NMePhe(3-Cl)]V[NMeW]NYY(Me)IIR[dR]F[NMeY]CG[Lys(N3)]-NH2; thioether N-15)

Kd [2]: 1 to 100 nM
Compound: CC[C@H](C)[C@@H]1NC(=O)[C@H](Cc2ccc(O)cc2)NC(=O)[C@H](Cc2ccc(O)cc2)NC(=O)[C@H](CC(N)=O)NC(=O)[C@H](Cc2c[nH]c3ccccc23)NC(=O)[C@H](C(C)C)NC(=O)[C@H](Cc2ccccc2)N(C)C(=O)[C@H](C(C)C)NC(=O)[C@H](C)NC(=O)CSC[C@@H](C(=O)N(C)CC(=O)N(C)CC(=O)N(C)CC(N)=O)NC(=O)[C@H](Cc2ccc(O)cc2)N(C)C(=O)[C@H](Cc2ccc(O)cc2)NC(=O)[C@H](CCCNC(=N)N)NC(=O)[C@H](CCCNC(=N)N)NC(=O)[C@H]([C@@H](C)CC)NC1=O [compound 298]

Kd [2]: 1 to 100 nM
Compound: CC[C@H](C)[C@@H]1NC(=O)[C@H](Cc2ccc(OC)cc2)NC(=O)[C@H](Cc2ccc(O)cc2)NC(=O)[C@H](CC(N)=O)NC(=O)[C@H](Cc2c[nH]c3ccccc23)N(C)C(=O)[C@H](C(C)C)NC(=O)[C@H](Cc2cccc(Cl)c2)N(C)C(=O)[C@H](C(C)C)NC(=O)[C@H](C)NC(=O)CSC[C@@H](C(=O)NCCOCCOCCOCCOCCC(N)=O)NC(=O)[C@H](Cc2ccc(O)cc2)N(C)C(=O)[C@H](Cc2ccccc2)NC(=O)[C@@H](CCCNC(=N)N)NC(=O)[C@H](CCCNC(=N)N)NC(=O)[C@H]([C@@H](C)O)NC1=O [compound 331]

Kd [2]: 1 to 100 nM
Compound: CC[C@H](C)[C@@H]1NC(=O)[C@H](Cc2ccc(O)cc2)NC(=O)[C@H](Cc2ccc(O)cc2)NC(=O)[C@H](CC(N)=O)NC(=O)[C@H](Cc2c[nH]c3ccccc23)NC(=O)[C@H](C(C)C)NC(=O)[C@H](Cc2cccc(Cl)c2)N(C)C(=O)[C@H](C(C)C)NC(=O)[C@H](C)NC(=O)CSC[C@@H](C(N)=O)NC(=O)[C@H](Cc2ccc(O)cc2)N(C)C(=O)[C@H](Cc2ccccc2)NC(=O)[C@H](CCCCN)NC(=O)[C@H](CC(=O)O)NC(=O)[C@H]([C@@H](C)CC)NC1=O [compound 307]

Compound: CC[C@H](C)[C@@H]1NC(=O)[C@H](Cc2ccc(OC)cc2)NC(=O)[C@H](Cc2ccc(O)cc2)NC(=O)[C@H](CC(N)=O)NC(=O)[C@H](Cc2c[nH]c3ccccc23)N(C)C(=O)[C@H](C(C)C)NC(=O)[C@H](Cc2cccc(Cl)c2)N(C)C(=O)[C@H](CCC(=O)O)NC(=O)[C@H](C)NC(=O)CSC[C@@H](C(=O)NCC(=O)NCC(=O)NCC(=O)NCC(=O)N[C@@H](CO)C(=O)N[C@@H](CO)C(=O)N[C@@H](CS)C(N)=O)NC(=O)[C@H](Cc2ccc(O)cc2)N(C)C(=O)[C@H](Cc2ccccc2)NC(=O)[C@@H](CCCNC(=N)N)NC(=O)[C@H](CCCNC(=N)N)NC(=O)[C@H]([C@@H](C)CC)NC1=O [compound 234]
Kd: 1 to 100 nM

Kd [1]: 1 to 100 nM
Compound: CC[C@H](C)[C@@H]1NC(=O)[C@H](Cc2ccc(O)cc2)NC(=O)[C@H](Cc2ccc(O)cc2)NC(=O)[C@H](CC(N)=O)NC(=O)[C@H](Cc2c[nH]c3ccccc23)NC(=O)[C@H](C(C)C)NC(=O)[C@H](Cc2ccccc2)N(C)C(=O)[C@H](C(C)C)NC(=O)[C@H](C)NC(=O)CSC[C@@H](C(=O)NCCOCCOCCOCCOCCOCCOCCOCCOCCOCCOCCOCCOCCC(N)=O)NC(=O)[C@H](Cc2ccc(O)cc2)N(C)C(=O)[C@H](C)NC(=O)[C@H](CCCNC(=N)N)NC(=O)[C@H](CCCNC(=N)N)NC(=O)[C@H]([C@@H](C)CC)NC1=O [compound 123]
